# Counter-ions that a name gives are not always drawn.
# Key:
# [1] = Dissolution rate of lyophilized J1/sucrose in 5% glucose solution (Example 1); format: physicochemical; details: lyophilized 0.1 mg J1 and 0.2 mg sucrose, 0.5 ml 5% glucose solution
# Method: The speed of dissolution of melphalan flufenamide hydrochloride (J1) by addition of sucrose to the freeze-drying process of J1 was tested. Sucrose is a formulation agent Generally Considered As Safe (GRAS) according to the FDA (US Food and Drug Administration).
# A solution of J1 (5 mg) was made in tert-butanol:water 1:1 (5 ml). 100 μl of the solution was added to a vial containing 0.2 mg sucrose. The vial was covered with aluminium foil and frozen on dry ice-acetone. The vial consisted of 0.1 mg J1 and 0.2 mg sucrose. The vial with sample was thereafter freeze-dried overnight. Freeze-drying was performed on a Leybold Lyovac GT2 equipment.
# A 5% glucose solution (100 ml) was prepared and the internal marker 3-methoxy-benzoic acid (0.8 mg/ml) was added to the solution.
# 0.5 ml of the glucose solution from step 2, was added to the freeze-dried vial with J1 sample from step 1. The vial was shaken at room temperature for 15 seconds and thereafter filtered and transferred to a glass vial for J1 concentration measurement, with HPLC. The amount of dissolved J1 was determined using HPLC and a calibration curve.
# [2] = Stability test of J1 solution (HPLC), Example 6; format: physicochemical
# Method: Stability of the solution containing J1 and tert-butanol:water, 1:1 (v/v), was tested. A solution comprising tert-butanol:water 1:1 (v/v) and J1 at a concentration of 1 mg/ml, was left at room temperature for 5 days.
# [3] = Stability of previous preparation in DMA in a glucose solution; format: physicochemical; details: dissolved in DMA (dimethylacetamide) in a glucose solution
# Description: In previous preparations, melphalan flufenamide was obtained from synthesis as a white powder in crystalline form. This crystalline form can only be dissolved in highly acidic aqueous solutions, which for practical manufacturing purposes is impossible. […] Therefore, previously melphalan flufenamide was instead dissolved in DMA (dimethylacetamide) in a glucose solution. The preparation is feasible but is unstable: 7% degradation/h. Furthermore, dimerization occurs and the solution turns bright yellow. This preparation was, however, unreliable and the polymerization rate varied in an unacceptable manner.
# [4] = system: tumors; details: even at lower concentrations than melphalan; cited from earlier work
# [5] = tert-butanol:water 1:1 (v/v), 1 mg/ml, room temperature, 5 days
SMILES,% of J1 dissolved in 15 seconds ([1]; room temperature),concentration of J1 dissolved in the glucose solution during 15 seconds ([1]; shaken at room temperature 15 seconds) [µg/mL],degradation compared with tert-butanol:water solution ([2]; J1 dissolved in an acidic ethanol-water solution),"amount of J1 by HPLC signal after 5 days [2, 5] [%]","decrease of J1 HPLC signal [2, 5] [%]","amount of J1 by HPLC signal, initial ([2]; tert-butanol:water 1:1 (v/v), 1 mg/ml, room temperature, start) [%]",degradation [3] [% degradation/h],cell killing activity against tumors [4]
"CCOC(=O)[C@H](Cc1ccc(F)cc1)NC(=O)[C@@H](N)Cc1ccc(N(CCCl)CCCl)cc1 [Sample J1, melphalanyl-L-p-fluorophenylalanine ethyl ester hydrochloride]",approximately 40%,80,much more rapid,85.5,11.7,97.2,–,–
"CCOC(=O)[C@H](Cc1ccc(F)cc1)NC(=O)[C@@H](N)Cc1ccc(N(CCCl)CCCl)cc1 [melphalan flufenamide, melphalanyl-L-p-fluorophenylalanine ethyl ester]",–,–,–,–,–,–,7,increased cell killing activity
